Reference: patent US20250115569A1, “SULFONAMIDE COMPOUNDS FOR THE TREATMENT OF NEUROLOGICAL CONDITIONS” (LARIO THERAPEUTICS LIMITED, priority 2021, published 2025)

target: Cav2.3 (Homo sapiens, UniProt Q15878); test: Human Cav2.3 channel calcium-influx assay; assay type: cell-based; conditions: Fluo8 fluorescence, HEK-293 T-Rex/Kir2.1/Cav2.3e cells, without pluronic acid, read-out: Cav2.3 (pIC50) (converted)
Method in brief: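 HEK-293 T-Rex/Kir2.1 cells with doxycycline (0.2 μg/mL)-inducible Cav2.3e plus Cavβ4-α2δ1, loaded with Fluo8 NW in 0 mM K+ Tyrode's. Compounds (8 points, top 30 μM, half-log, 0.3% final DMSO, n=4) preincubated 3 min at RT, then depolarized with 20 mM KCl/2 mM CaCl2 (final); fluorescence read 130 s.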

Cav2.3, sequence (Q15878 whole entry, looked up): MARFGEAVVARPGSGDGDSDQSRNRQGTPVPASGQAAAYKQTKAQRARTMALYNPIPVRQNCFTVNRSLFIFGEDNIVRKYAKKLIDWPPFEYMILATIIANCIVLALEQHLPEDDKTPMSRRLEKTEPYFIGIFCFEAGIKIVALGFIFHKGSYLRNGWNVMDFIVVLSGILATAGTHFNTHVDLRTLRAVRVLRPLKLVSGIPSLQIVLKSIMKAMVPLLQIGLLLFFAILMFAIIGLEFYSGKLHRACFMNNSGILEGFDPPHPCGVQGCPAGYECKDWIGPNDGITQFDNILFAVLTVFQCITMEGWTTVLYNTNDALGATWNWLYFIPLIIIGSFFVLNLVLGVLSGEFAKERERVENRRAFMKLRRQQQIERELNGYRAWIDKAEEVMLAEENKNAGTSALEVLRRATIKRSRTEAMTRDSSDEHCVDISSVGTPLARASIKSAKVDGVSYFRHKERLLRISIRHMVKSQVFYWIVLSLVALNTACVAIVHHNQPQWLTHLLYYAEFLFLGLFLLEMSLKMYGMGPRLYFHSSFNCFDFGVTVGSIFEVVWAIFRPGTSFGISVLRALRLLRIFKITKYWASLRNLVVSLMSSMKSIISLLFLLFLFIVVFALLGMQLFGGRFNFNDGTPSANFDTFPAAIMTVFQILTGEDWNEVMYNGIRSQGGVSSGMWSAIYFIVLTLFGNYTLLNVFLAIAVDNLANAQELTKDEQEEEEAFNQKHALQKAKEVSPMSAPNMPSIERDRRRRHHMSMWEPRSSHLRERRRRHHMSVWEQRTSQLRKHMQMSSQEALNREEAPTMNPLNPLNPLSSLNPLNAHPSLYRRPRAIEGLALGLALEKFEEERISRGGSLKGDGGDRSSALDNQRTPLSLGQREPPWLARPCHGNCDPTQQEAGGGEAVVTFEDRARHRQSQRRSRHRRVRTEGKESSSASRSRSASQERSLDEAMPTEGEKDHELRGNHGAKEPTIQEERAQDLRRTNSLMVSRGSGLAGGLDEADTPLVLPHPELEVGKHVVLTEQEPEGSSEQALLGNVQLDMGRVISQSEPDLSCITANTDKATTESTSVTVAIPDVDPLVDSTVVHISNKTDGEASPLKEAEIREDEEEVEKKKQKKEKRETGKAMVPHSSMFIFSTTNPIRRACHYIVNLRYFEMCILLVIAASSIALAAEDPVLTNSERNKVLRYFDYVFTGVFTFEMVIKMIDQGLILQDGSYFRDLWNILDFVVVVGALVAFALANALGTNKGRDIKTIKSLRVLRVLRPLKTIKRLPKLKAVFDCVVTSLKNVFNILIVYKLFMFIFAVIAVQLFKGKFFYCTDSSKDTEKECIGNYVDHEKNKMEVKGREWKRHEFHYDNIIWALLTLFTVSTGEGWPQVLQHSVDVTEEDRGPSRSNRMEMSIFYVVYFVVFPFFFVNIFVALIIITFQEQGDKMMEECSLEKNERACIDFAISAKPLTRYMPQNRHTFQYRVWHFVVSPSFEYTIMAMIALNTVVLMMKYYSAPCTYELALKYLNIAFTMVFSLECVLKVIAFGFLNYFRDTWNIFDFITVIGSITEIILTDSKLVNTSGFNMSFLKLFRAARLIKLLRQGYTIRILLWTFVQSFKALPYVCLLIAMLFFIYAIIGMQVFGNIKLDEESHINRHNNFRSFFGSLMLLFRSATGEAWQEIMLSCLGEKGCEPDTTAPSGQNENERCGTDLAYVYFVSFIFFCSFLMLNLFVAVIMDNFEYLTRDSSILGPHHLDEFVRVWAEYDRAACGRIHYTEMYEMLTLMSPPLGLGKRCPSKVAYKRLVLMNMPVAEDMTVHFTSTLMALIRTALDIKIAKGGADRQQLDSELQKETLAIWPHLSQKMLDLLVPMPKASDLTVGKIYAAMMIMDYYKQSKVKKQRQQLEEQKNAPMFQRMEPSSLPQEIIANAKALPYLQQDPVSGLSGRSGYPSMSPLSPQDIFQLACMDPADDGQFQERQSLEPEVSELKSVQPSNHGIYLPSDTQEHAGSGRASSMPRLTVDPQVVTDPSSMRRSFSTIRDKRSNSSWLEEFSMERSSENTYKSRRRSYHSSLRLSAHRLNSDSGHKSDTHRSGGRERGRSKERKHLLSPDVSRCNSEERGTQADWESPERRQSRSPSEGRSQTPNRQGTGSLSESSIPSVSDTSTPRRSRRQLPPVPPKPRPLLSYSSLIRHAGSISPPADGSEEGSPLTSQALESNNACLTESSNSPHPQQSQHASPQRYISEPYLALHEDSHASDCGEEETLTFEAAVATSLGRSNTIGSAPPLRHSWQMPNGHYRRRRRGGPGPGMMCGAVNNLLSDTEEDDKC

IC50	SMILES
25.1 nM	CCN([C@H](c1ccc(F)cc1)C(F)(F)F)S(=O)(=O)c1ccn2nncc2c1 [Example 145, (R)—N-ethyl-N-(2,2,2-trifluoro-1-(4-fluorophenyl)ethyl)-[1,2,3]triazolo[1,5-a]pyridine-5-sulfonamide]
158 nM	CCN([C@H](c1ccc(F)cc1)C(F)(F)F)S(=O)(=O)c1cnc2nsnc2c1 [Example 147, (R)—N-ethyl-N-(2,2,2-trifluoro-1-(4-fluorophenyl)ethyl)-[1,2,5]thiadiazolo[3,4-b]pyridine-6-sulfonamide]
1070 nM	CCN([C@H](c1ccc(F)cc1)C(F)(F)F)S(=O)(=O)c1cn2ccccc2n1 [Example 142, (R)—N-ethyl-N-(2,2,2-trifluoro-1-(4-fluorophenyl)ethyl)imidazo[1,2-a]pyridine-2-sulfonamide]
33.9 nM	CCN([C@H](c1ccc(F)cc1)C(F)(F)F)S(=O)(=O)c1cnc2ncccn12 [Example 177, (R)—N-ethyl-N-(2,2,2-trifluoro-1-(4-fluorophenyl)ethyl)imidazo[1,2-a]pyrimidine-3-sulfonamide]
331 nM	CCN([C@H](c1ccc(F)cc1)C(F)(F)F)S(=O)(=O)c1cc2cn[nH]c2cn1 [Example 167, (R)—N-ethyl-N-(2,2,2-trifluoro-1-(4-fluorophenyl)ethyl)-1H-pyrazolo[3,4-c]pyridine-5-sulfonamide]
166 nM	CCN([C@H](c1ccc(F)cc1)C(F)(F)F)S(=O)(=O)c1cnnc(OC)c1 [Example 123, (R)—N-ethyl-6-methoxy-N-(2,2,2-trifluoro-1-(4-fluorophenyl)ethyl)pyridazine-4-sulfonamide]
191 nM	CCN(C(c1ccc(F)cc1)C(F)(F)F)S(=O)(=O)c1cnnc(OC)c1 (stereo not drawn) [Example 121, N-ethyl-6-methoxy-N-(2,2,2-trifluoro-1-(4-fluorophenyl)ethyl)pyridazine-4-sulfonamide]

More lines, now with the values behind:

SMILES	IC50
CN([C@H](c1ccc(Cl)cc1)C(F)(F)F)S(=O)(=O)c1cnc2nsnc2c1 [Example 179, (R)—N-(1-(4-chlorophenyl)-2,2,2-trifluoroethyl)-N-methyl-[1,2,5]thiadiazolo[3,4-b]pyridine-6-sulfonamide]	661 nM
CCN(C(c1ccc(F)cc1)C(F)(F)F)S(=O)(=O)c1cc(N2CCOCC2)cs1 (stereo not drawn) [Example 92, N-ethyl-4-morpholino-N-(2,2,2-trifluoro-1-(4-fluorophenyl)ethyl)thiophene-2-sulfonamide]	1320 nM
N#Cc1cncc(S(=O)(=O)N(CCF)[C@@H](c2ccc(F)cc2)C(F)(F)F)c1 [Example 65, (S)-5-Cyano-N-(2-fluoroethyl)-N-(2,2,2-trifluoro-1-(4-fluorophenyl)ethyl)pyridine-3-sulfonamide]	3800 nM
CN([C@H](c1ccc(Cl)cc1)C(F)(F)F)S(=O)(=O)c1cn2ccnc2cn1 [Example 199, (R)—N-(1-(4-chlorophenyl)-2,2,2-trifluoroethyl)-N-methylimidazo[1,2-a]pyrazine-6-sulfonamide]	1150 nM
CCN([C@@H](c1ccc(F)cc1)C(F)(F)F)S(=O)(=O)c1cnc(C#N)s1 [Example 83, (S)-2-Cyano-N-ethyl-N-(2,2,2-trifluoro-1-(4-fluorophenyl)ethyl)thiazole-5-sulfonamide]	3800 nM
CCN(C(c1ccc(F)cc1)C(F)(F)F)S(=O)(=O)c1ncc(C#N)s1 (stereo not drawn) [Example 80, 5-Cyano-N-ethyl-N-(2,2,2-trifluoro-1-(4-fluorophenyl)ethyl)thiazole-2-sulfonamide]	447 nM
CCN(C(c1ccc(F)cc1)C(F)(F)F)S(=O)(=O)c1ccc(C2CNC2)s1 (stereo not drawn) [Example 47, 5-(Azetidin-3-yl)-N-ethyl-N-(2,2,2-trifluoro-1-(4-fluorophenyl)ethyl)thiophene-2-sulfonamide]	501 nM
CN(C(c1ccc(C(F)(F)F)cc1)C(F)(F)F)S(=O)(=O)c1cncc(C#N)c1 (stereo not drawn) [Example 67, 5-Cyano-N-methyl-N-(2,2,2-trifluoro-1-(4-(trifluoromethyl)phenyl)ethyl)pyridine-3-sulfonamide]	107 nM
